Experimental data as given in PubChem BioAssay AID330 (DTP/NCI, 2004).
Values joined by “and” are separate entries in the source; they are usually repeats but may differ in a detail not shown here. Equal values may be shown once. Toxic doses and inconclusive results are not listed. The calls were made as follows: active = survival T/C of 150% or more; inactive = T/C below 125% in these data.

System: P388 leukemia ip, CD2F1 mice, survival T/C
Test: NCI In Vivo Anticancer Drug Screen. Data for tumor model P388 Leukemia (intraperitoneal) in CD2F1 (CDF1) mice
Conditions: endpoint: median survival time, higher = longer survival
Summary of the method: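 Mice carrying the transplanted tumor received test compound or vehicle. Survival was recorded in each group, and the value is the treated-group measurement divided by that of the vehicle-treated control group.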

[1] = dose: 50.0 mg/kg/injection, schedule: Q01DX009 (ip), vehicle: saline with Tween-80
[2] = dose: 100.0 mg/kg/injection, schedule: Q01DX009 (ip), vehicle: saline with Tween-80
[3] = dose: 50.0 mg/kg/injection, schedule: Q01DX005 (ip), vehicle: saline
[4] = dose: 100.0 mg/kg/injection, schedule: Q01DX005 (ip), vehicle: saline
[5] = dose: 200.0 mg/kg/injection, schedule: Q01DX005 (ip), vehicle: saline
[6] = dose: 60.0 mg/kg/injection, schedule: Q01DX005 (ip), vehicle: saline with Tween-80
[7] = dose: 120.0 mg/kg/injection, schedule: Q01DX005 (ip), vehicle: saline with Tween-80
[8] = dose: 240.0 mg/kg/injection, schedule: Q01DX005 (ip), vehicle: saline with Tween-80
[9] = dose: 50.0 mg/kg/injection, schedule: Q01DX009 (ip), vehicle: saline
[10] = dose: 100.0 mg/kg/injection, schedule: Q01DX009 (ip), vehicle: saline
[11] = dose: 200.0 mg/kg/injection, schedule: Q01DX009 (ip), vehicle: saline
[12] = dose: 50.0 mg/kg/injection, schedule: Q01DX009 (ip), vehicle: Klucel (hydroxypropylcellulose) (HPC)
[13] = dose: 100.0 mg/kg/injection, schedule: Q01DX009 (ip), vehicle: Klucel (hydroxypropylcellulose) (HPC)
[14] = dose: 200.0 mg/kg/injection, schedule: Q01DX009 (ip), vehicle: Klucel (hydroxypropylcellulose) (HPC)
[15] = dose: 12.5 mg/kg/injection, schedule: Q01DX009 (ip), vehicle: saline with Tween-80
[16] = dose: 25.0 mg/kg/injection, schedule: Q01DX009 (ip), vehicle: saline with Tween-80

Measured: T/C

Cc1cn(CC2C=CC(CS[As](C)C)O2)c(=O)[nH]c1=O (stereo unspecified)
inactive: dose: 12.5 mg/kg/injection, schedule: Q01DX009 (ip), vehicle: distilled water + Tween-80 99 % of control | dose: 25.0 mg/kg/injection, schedule: Q01DX009 (ip), vehicle: distilled water + Tween-80 108 % of control | dose: 50.0 mg/kg/injection, schedule: Q01DX009 (ip), vehicle: distilled water + Tween-80 101 % of control | dose: 100.0 mg/kg/injection, schedule: Q01DX009 (ip), vehicle: distilled water + Tween-80 119 % of control

COCC1OC(OC2C3=C(C(C)C)CCC3(C)/C=C3\C(CCC3(O)COC)C(C)C2O)C(O)C2OC3OC12OC3(C)C1CO1 (stereo unspecified)
inactive: dose: 1.5 mg/kg/injection, schedule: Q01DX009 (ip), vehicle: Klucel (hydroxypropylcellulose) (HPC) 96 % of control | dose: 3.0 mg/kg/injection, schedule: Q01DX009 (ip), vehicle: Klucel (hydroxypropylcellulose) (HPC) 113 % of control | dose: 6.0 mg/kg/injection, schedule: Q01DX009 (ip), vehicle: Klucel (hydroxypropylcellulose) (HPC) 91 % of control | dose: 12.0 mg/kg/injection, schedule: Q01DX009 (ip), vehicle: Klucel (hydroxypropylcellulose) (HPC) 97 % of control | dose: 24.0 mg/kg/injection, schedule: Q01DX009 (ip), vehicle: Klucel (hydroxypropylcellulose) (HPC) 100 % of control

CCOC(=O)C(C(=O)OCC)[N+](=O)[O-]
inactive: [1] 100 % of control | [2] 93 % of control

[O-][Br+2]([O-])O
inactive: dose: 60.0 mg/kg/injection, schedule: Q01DX005 (ip), vehicle: saline 99 % of control | dose: 120.0 mg/kg/injection, schedule: Q01DX005 (ip), vehicle: saline 99 % of control

CC(OP(=O)(O)O)C(N)C(=O)O (stereo unspecified)
inactive: [3] 97 % of control | [4] 93 % of control | [5] 98 % of control

CC(C)OCc1cccc2ccnc(COC(C)C)c12
inactive: dose: 100.0 mg/kg/injection, schedule: Q01DX001 (ip), vehicle: saline 102 % of control | dose: 200.0 mg/kg/injection, schedule: Q01DX001 (ip), vehicle: saline 100 % of control | dose: 400.0 mg/kg/injection, schedule: Q01DX001 (ip), vehicle: saline 95 % of control

COc1ccc(-c2nnc(N)o2)cc1OC
inactive: [6] 107 % of control | [7] 98 % of control | [8] 103 % of control

O=C1OC(CCCl)CN1Cc1ccccc1 (stereo unspecified)
inactive: [9] 103 % of control | [10] 103 % of control | [11] 98 % of control

COc1ccc2nc(NC(=O)Nc3ccc(Cc4ccc(NC(=O)Nc5nc6ccc(OC)cc6s5)cc4)cc3)sc2c1
inactive: [12] 100 % of control | [13] 94 % of control | [14] 99 % of control

CN(C(=S=O)c1ccccc1)c1ccccc1
inactive: [9] 109 % of control | [10] 104 % of control | [11] 106 % of control

O=C1C(=O)c2ccccc2C(O)=C1CC=C(Cl)Cl
inactive: dose: 6.2 mg/kg/injection, schedule: Q01DX009 (ip), vehicle: water 120 % of control | dose: 12.5 mg/kg/injection, schedule: Q01DX009 (ip), vehicle: water 120 % of control | dose: 25.0 mg/kg/injection, schedule: Q01DX009 (ip), vehicle: water 110 % of control | dose: 25.0 mg/kg/injection, schedule: Q01DX009 (oral), vehicle: water 105 % of control | dose: 50.0 mg/kg/injection, schedule: Q01DX009 (ip), vehicle: water 120 % of control | dose: 50.0 mg/kg/injection, schedule: Q01DX009 (oral), vehicle: water 120 % of control | dose: 100.0 mg/kg/injection, schedule: Q01DX009 (oral), vehicle: water 120 % of control

O=C1CSC=C(c2ccccc2)O1
inactive: [15] 108 % of control | [16] 110 % of control | [1] 109 % of control | [2] 104 % of control

CCNCc1cc(Nc2nc(NC3CCC(N(C)C)CC3)c3ccccc3n2)ccc1OC (stereo unspecified)
inactive: dose: 5.0 mg/kg/injection, schedule: Q01DX009 (ip), vehicle: saline sonified 100 % of control | dose: 10.0 mg/kg/injection, schedule: Q01DX009 (ip), vehicle: saline sonified 109 % of control | dose: 20.0 mg/kg/injection, schedule: Q01DX009 (ip), vehicle: saline sonified 113 % of control

COC1/C=C/OC2(C)Oc3c(C)c(O)c4c(O)c(c(/C=N/N5C(C)CN(Cc6ccccc6C#N)CC5C)c(O)c4c3C2=O)NC(=O)/C(C)=C\C=C\C(C)C(O)C(C)C(O)C(C)C(OC(C)=O)C1C (stereo unspecified)
inactive: [15] 111 % of control | [16] 118 % of control | [1] 109 % of control | [2] 107 % of control and 108 % of control

COC(=O)N1[C@@H]2C=CC=CC=C2[C@@H](OC)N1C(=O)OC
inactive: dose: 50.0 mg/kg/injection, schedule: Q01DX005 (ip), vehicle: saline with Tween-80 101 % of control | dose: 100.0 mg/kg/injection, schedule: Q01DX005 (ip), vehicle: saline with Tween-80 103 % of control | dose: 200.0 mg/kg/injection, schedule: Q01DX005 (ip), vehicle: saline with Tween-80 103 % of control

NC(COC(=O)NCCCl)C(=O)O (stereo unspecified)
inactive: [12] 88 % of control | [13] 93 % of control | [14] 111 % of control

COCC1(C)CCCC2(C)C3=C(CCC(=O)C3)CCC12 (stereo unspecified)
inactive: dose: 100.0 mg/kg/injection, schedule: Q04DX003 (ip), vehicle: Klucel (hydroxypropylcellulose) (HPC) 99 % of control | dose: 200.0 mg/kg/injection, schedule: Q04DX003 (ip), vehicle: Klucel (hydroxypropylcellulose) (HPC) 101 % of control | dose: 400.0 mg/kg/injection, schedule: Q04DX003 (ip), vehicle: Klucel (hydroxypropylcellulose) (HPC) 96 % of control

CC(C)[C@](O)(C(=O)OCC1CC[N+]2([O-])CC[C@@H](O)C12)[C@H](C)O (stereo partly specified)
inactive: dose: 187.5 mg/kg/injection, schedule: Q01DX009 (ip), vehicle: saline 94 % of control | dose: 375.0 mg/kg/injection, schedule: Q01DX009 (ip), vehicle: saline 106 % of control | dose: 750.0 mg/kg/injection, schedule: Q01DX009 (ip), vehicle: saline 95 % of control | dose: 1500.0 mg/kg/injection, schedule: Q01DX009 (ip), vehicle: saline 106 % of control

COc1ccc(CCNC2(C#N)CCCCC2)cc1OC
inactive: [12] 98 % of control | [13] 102 % of control

CC(=O)C1C(=O)C(=O)N(c2ccc(S(N)(=O)=O)cc2)C1=O (stereo unspecified)
inactive: [6] 103 % of control | [7] 104 % of control | [8] 118 % of control

COc1ccccc1C(Nc1ccc([N+](=O)[O-])cc1)P(=O)(Oc1ccccc1)Oc1ccccc1 (stereo unspecified)
inactive: dose: 50.0 mg/kg/injection, schedule: Q01DX005 (ip), vehicle: Klucel (hydroxypropylcellulose) (HPC) 95 % of control | dose: 100.0 mg/kg/injection, schedule: Q01DX005 (ip), vehicle: Klucel (hydroxypropylcellulose) (HPC) 106 % of control | dose: 200.0 mg/kg/injection, schedule: Q01DX005 (ip), vehicle: Klucel (hydroxypropylcellulose) (HPC) 95 % of control

COc1ccc(OC)c(C2N(Cc3ccc(N(C)C)cc3)CCCN2Cc2ccc(N(C)C)cc2)c1
inactive: dose: 50.0 mg/kg/injection, schedule: Q04DX003 (ip), vehicle: saline with Tween-80 91 % of control | dose: 100.0 mg/kg/injection, schedule: Q04DX003 (ip), vehicle: saline with Tween-80 91 % of control

CCCC(O)C[N+](=O)[O-] (stereo unspecified)
inactive: dose: 100.0 mg/kg/injection, schedule: Q04DX003 (ip), vehicle: saline 109 % of control | dose: 200.0 mg/kg/injection, schedule: Q04DX003 (ip), vehicle: saline 109 % of control | dose: 400.0 mg/kg/injection, schedule: Q04DX003 (ip), vehicle: saline 118 % of control

CCCCCCCCCCCC[N+]1([O-])CCCCC1
inactive: dose: 12.5 mg/kg/injection, schedule: Q01DX009 (ip), vehicle: saline 89 % of control | dose: 25.0 mg/kg/injection, schedule: Q01DX009 (ip), vehicle: saline 91 % of control

O=C1c2cc3c(cc2C(=O)c2[nH]ncc21)OCO3
inactive: [6] 92 % of control | [7] 100 % of control | [8] 96 % of control

CNC(=O)OC(C)C1CCCCC1OC(=O)NC (stereo unspecified)
inactive: [3] 100 % of control | [4] 106 % of control | [5] 100 % of control

CN(C)c1c2c(oc(=O)c1Cl)-c1ccccc1OCC2
inactive: dose: 60.0 mg/kg/injection, schedule: Q01DX005 (ip), vehicle: Klucel (hydroxypropylcellulose) (HPC) 101 % of control | dose: 120.0 mg/kg/injection, schedule: Q01DX005 (ip), vehicle: Klucel (hydroxypropylcellulose) (HPC) 103 % of control | dose: 240.0 mg/kg/injection, schedule: Q01DX005 (ip), vehicle: Klucel (hydroxypropylcellulose) (HPC) 107 % of control
